Measurements taken from ChEMBL document CHEMBL1141260, “Biologically active indole alkaloids from Kopsia arborea” (J Nat Prod, 2007).
Converted amounts (≈) assume the structure as drawn.

Experiments:
Format in all cases: functional, cell-based
KB = test: Cytotoxicity against vincristine-sensitive human KB cells
[1] = Cytotoxicity against vincristine-resistant human KB/VJ300 cells
[2] = Cytotoxicity against vincristine-resistant human KB/VJ300 cells in presence of 0.1 ug/mL vincristine
Jurkat = test: Cytotoxicity against human Jurkat cells

SMILES	IC50 (KB) [µg/mL]	IC50 [1] [µg/mL]	IC50 [2] [µM]	IC50 (Jurkat) [µg/mL]
C/C=C1/CN2CCc3c([nH]c4ccccc34)[C@H]2C[C@@H]1C(C)=O [ARBORICINE]	> 25	> 25	36.7	> 25
CC[C@]12CCCN3CC[C@]4(C(=C(C(=O)OC)C1)Nc1ccccc14)[C@@H]32 [VINCADIFFORMINE]	10.2 (≈ 30.1 µM)	6.3 (≈ 18.6 µM)	13.3	21.8 (≈ 64.4 µM)
COC(=O)C1=C2Nc3ccccc3[C@]23CCN2CC[C@H]1[C@H]([C@@H](C)OC)[C@@H]23	> 25	> 25	27.1	> 25
COC(=O)C1=C2Nc3ccccc3[C@]23CCN2CC[C@H]1[C@H]([C@H](C)OC)[C@@H]23	> 25	> 25	26.8	> 25
C=C1C2=Nc3ccccc3[C@@]23CCN2C/C(=C/C)[C@@H]1C[C@H]23 [VALPARICINE]	3.6 (≈ 13 µM)	0.75 (≈ 2.71 µM)	1.67	0.25 (≈ 0.905 µM)
CC[C@]12CCCNC13/C(=C\C(=O)OC)c1ccccc1N3C(=O)CC2 (some centres not stated) [ARBOLOSCINE]	15 (≈ 44.1 µM)	11 (≈ 32.3 µM)	11.2	–
C/C=C1\[C@@H](C(C)=O)CCN2CCc3c([nH]c4ccccc34)[C@H]12 [ARBORICININE]	> 25	> 25	31.3	> 25
